Results published in patent publication US20150344540A1, “NOVEL GLP-1 RECEPTOR AGONISTS WITH CHOLESTEROL EFFLUX ACTIVITY” (NOVO NORDISK A/S, priority 2012, published 2015).

Key:
db/db mice = assay: Antidiabetic effect (acute blood glucose) in db/db mice; type: in vivo, male db/db (C57B1/KS db/db) mice
Experimental: The mice, 48 male db/db (C57B1/KS db/db), were purchased from Taconic, arriving at Novo Nordisk A/S Animal Unit at 6 weeks of age. The mice were housed according to standard rules in the animal unit and given free access to standard chow and tap water. The animals were kept at a room temperature of 22-24° C. and housed in groups of 5 mice, with free access to food and water, according to Animal Unit's SOP (Housing of experimental animals at Novo Nordisk A/S).
Test compound was administered as a single dose s.c.
Blood glucose was measured in a 5 μl full blood sample taken from the tip of the tail by puncturing the capillary bed with a lancet, using a 5 μl heparinised capillary tube to sample the blood. The capillary tube was then shaken into 2500 μl glucose/lactate System Solution and measured in a Biosen S_Line, autoanalyser (EKF Diagnostics GmbH, Magdeburg, Germany) according to the manufacturer's instructions. The samples were kept at room temperature until analysis. If analysis was postponed, samples were kept at 4° C. for a maximum of 24 h. The blood samples were taken at the following time points: 0, 30, 60, 120, 180 and 240 minutes and again at 24 h. After the 24 h sample, the blood was sampled from cheek or eye blood for drug exposure measurement in EDTA coated tubes. 50 μl plasma was pipetted from each animal for analysis in an in house immunoassay developed for GLP-1 analogues.

[1] = Mechanical stress experiment, Thioflavin T fibrillation assay; type: physicochemical; settings: 45 hour mechanical stress, 37° C., samples A-D
Experimental: In order to determine the physical stability of peptides in solution an accelerated mechanical stress assay was performed. Samples were prepared just before starting the assay. Samples may be prepared in the pH range 3-9 and with peptide concentrations in the range 0-20 mM. Samples may contain buffers such as phosphate, acetate, Tris. Samples may contain antimicrobial preservatives such as phenol or m-cresol.
The pH of the sample was adjusted to the desired value using NaOH and HCl. Thioflavin T was added to the samples from a stock solution in H2O to a final concentration of 5 μM.
Aliquots of each sample were transferred to a 96 well microtiter plate (Packard OptiPlate™-96, white polystyrene) with 200 μL in each well. For each sample data may be recorded for one well or for two or more replicas (two or more wells). […]
Incubation at a selected temperature, mechanical stress and measurement of Thioflavin T fluorescence was performed using a Fluoroskan Ascent FL fluorescence platereader (Thermo Labsystems). […] Fluorescence measurement was performed using excitation through a 444 nm filter and measurement of emission through a 485 nm filter. The fluorescence was measured every 20 minutes during the experiment.
The fluorescence from Thioflavin T was plotted against duration of mechanical stress. A substantial increase in fluorescence from Thioflavin T indicates amyloid fibril formation. […]

Plasma concentration 24 hours after dosing (db/db mice; single s.c. dose, FIG. 1B): still very high
fibril formation (Thioflavin T fluorescence) [1]: did not show signs of fibril formation
SMILES: CC[C@H](C)[C@H](NC(=O)[C@H](Cc1ccccc1)NC(=O)[C@H](CCC(=O)O)NC(=O)[C@H](CCCCN)NC(=O)[C@@H](NC(=O)[C@H](C)NC(=O)[C@H](CCC(=O)O)NC(=O)CNC(=O)[C@H](CCC(=O)O)NC(=O)[C@H](CC(C)C)NC(=O)[C@H](Cc1ccc(O)cc1)NC(=O)[C@H](CO)NC(=O)[C@H](CO)NC(=O)[C@@H](NC(=O)[C@H](CC(=O)O)NC(=O)[C@H](CO)NC(=O)[C@@H](NC(=O)[C@H](Cc1ccccc1)NC(=O)[C@@H](NC(=O)CNC(=O)[C@H](CCC(=O)O)NC(=O)C(C)(C)NC(=O)[C@@H](N)Cc1c[nH]cn1)[C@@H](C)O)[C@@H](C)O)C(C)C)C(C)C)C(=O)N[C@@H](C)C(=O)N[C@@H](Cc1c[nH]c2ccccc12)C(=O)N[C@@H](CC(C)C)C(=O)N[C@H](C(=O)N[C@@H](CCC(=O)O)C(=O)N[C@@H](CCCCN)C(=O)NC(C)(C)C(=O)N[C@@H](CCCCN)C(=O)N[C@@H](CCC(=O)O)C(=O)N[C@@H](Cc1ccccc1)C(=O)N[C@@H](CC(C)C)C(N)=O)C(C)C [Compound 1, [Aib8,Glu23,Val25,Glu34,Lys35,Aib36,Lys37]-GLP-1-(7-37)-peptidyl-Glu-Phe-Leu amide]
duration of action (db/db mice; single s.c. dose): at least 24 h
acute effect on blood glucose (db/db mice; single s.c. dose 10, 30, 100 and 300 nmol/kg): lowered blood glucose in a dose-dependent manner
